Results as given in patent US20240350481A1, “USE OF N-MYRISTOYL TRANSFERASE (NMT) INHIBITORS IN THE TREATMENT OF CANCER, AUTOIMMUNE DISORDERS, AND INFLAMMATORY DISORDERS” (PACYLEX PHARMACEUTICALS INC., priority 2020, published 2024).
Counter-ions that a name gives are not always drawn. Residues, ends and D or L forms follow the SMILES beside them. *: point of attachment. Cbz = O=C(OCc1ccccc1)*

Experiments:
T cells = experiment: Multiplex cytokine array, activated T cell supernatant; type: cell-based, human; conditions: 48 h drug, then T cell activator with drug 2 more days
Experimental: (§1) Human peripheral blood mononuclear cells (PBMC) and purified T cells from healthy donors were purchased from […] Technologies (CA). Cells (7.5×10^6/ml) were cultured in the RPMI supplementing with 10% heat-inactivated fetal bovine serum (vWR), 1% penicillin/streptomycin (SigmaMillipore), 1% sodium pyruvate, and 1% non-essential amino acids (Gibco) in 24 well plates in the presence of 100 IU/ml interleukin 2 ([…] Technologies or HIV reagent program (managed by ATCC).
(§2) Then, cells were induced with T cell activator ([…]) in the presence of the drugs for 2 more days. After 4 days, the viability of treated T cells was analyzed using Flow cytometry. The supernatants for both PBMC and T cells were collected for further analysis.
The collected supernatants were analyzed for various biomarkers using multiplex cytokine array (Eve Technologies Discovery assay, Calgary, CA) either human cytokine/chemokine 71-Plex (HD71) for PBMC or human proinflammatory focused 15-Plex (HDF15) for T cells samples.

[1] = Mouse IV; cited from earlier work
[2] = T cell viability by flow cytometry; type: cell-based; conditions: human; for viability at 4 days, 20 nM: Drug 20 nM; for viability at 4 days, 100 nM: Drug 100 nM; for viability at 4 days, 500 nM: Drug 500 nM
Experimental: as §1, §2

[3] = system: BCR signaling in BL2 cells; experiment: BCR signaling after anti-IgM in BL2 cells (Western blot); type: cell-based; conditions: 0.1 or 1.0 μM, 48 hrs
Experimental: IM9, Ramos, SU-DHL-10 and COS-7 were purchased from ATCC. BL2, DOHH2, WSU-DLCL2 & BJAB were purchased from DSMZ (Germany). Ramos and BL2 were kind gifts of Drs. Jim Stone and Robert […] of University of Alberta. VDS isolation was described in Tosato G, et al. (reference 47). VDS, BJAB and SU-DHL-10 were kind gifts of Dr. Michael Gold of the University of British Columbia. HUVEC cells (pooled from up to 4 umbilical cords) were purchased from PromoCell. […] Cell lines were tested regularly for mycoplasma contamination using MycoAlert Plus Mycoplasma Detection Kit (Lonza, ME, USA). All cell lines tested negative for mycoplasma contamination. […] Please see supplementary Table 3 for cell line names, types and histology. For transfections, adherent cells COS-7 cells were transfected using X-tremeGENE9 DNA (Roche) transfection reagent according to manufacturer's instructions. For BCR activation experiments, cells were incubated with 25 μg/ml of Goat F(ab')2 anti-human IgM (or anti-human IgM (μ chain) showing identical BCR activation properties) for 2 minutes and the activation was stopped by the addition of 1 mM vanadate (Bio Basic Inc) solution in PBS. Protein concentrations were determined by BCA assay (Thermo Scientific) according to manufacturer's instructions. Samples were prepared for electrophoresis by the addition of 5× loading buffer and boiled for 5 min. […]

[4] = system: Src and Lyn SFK protein levels; experiment: SFK protein levels (Western blot); type: cell-based; conditions: BL2 cells treated with PCLX-001, 10 μM MG132 for the last 6 hrs
Experimental: Cells were harvested, washed in cold PBS, and lysed in […] SDS-RIPA buffer (50 mM Tris-HCl pH 8.0, 150 mM NaCl, 1% Igepal CA-630, 0.5% sodium deoxycholate, 2 mM MgCL2, 2 mM EDTA with 1×complete protease inhibitor; (Roche Diagnostics) by rocking for 15 min at 4° C. The lysates were centrifuged at 16,000 g for 10 min at 4° C., and the post-nuclear supernatant was collected.
Protein concentrations were determined by BCA assay (Thermo Scientific) according to manufacturer's instructions. Samples were prepared for electrophoresis by the addition of 5× loading buffer and boiled for 5 min. If not stated otherwise, […] of total protein per lane is loaded on a 12.5% acrylamide gels. After electrophoresis, gels are transferred onto […] nitrocellulose membrane (Bio-Rad) thereafter probed with antibodies as described in materials section.

DOHH2 tumors = experiment: DOHH2 xenograft, tumor growth; type: in vivo, mouse; conditions: doxorubicin treatment
Experimental: DOHH2 xenograft study at Charles River's facility: […] On Day 1 of the study, animals were given a rehydration solution ad libitum in an effort to reduce dehydration during the dosing phase of the study. […] The dose volume was 10 mL/kg.

[5] = Toxicology in DOHH2 xenograft mice; conditions: DOHH2 xenograft; Doxorubicin 3 mg/kg Once a week; normal [5-20]
Experimental: (§4) Mice were observed daily for clinical signs of toxicity and effects on body weight. After the last dose, three mice/group were euthanized and necropsied. At euthanasia, blood samples were taken for hematology analyses and to measure AST and CK activities and bilirubin and creatinine concentrations. At necropsy, samples of samples of femur, both kidneys, liver, small intestine, and injection site were taken and fixed.
(§5) The dose volume was 10 mL/kg. At the end of the two-to three-week dosing period, mice were euthanized and three/group were necropsied. Mice that died or were euthanized early for humane reasons also were necropsied. In life, mice were monitored regularly and weighed daily, and tumors were measured with digital Vernier calipers (Mitutoyo) every other day. Tumor volume was calculated as length (mm)×width (mm)2/2; length and width were the longest and shortest diameters, respectively. At euthanasia, at the end of the dosing period blood samples were taken for hematology analyses and clinical chemistry analyses that included AST and CK activities and bilirubin and creatinine concentrations (plus ALT activity and BUN concentration in the Jackson Laboratory study). At necropsy, samples of femur, both kidneys, liver, small intestine, and injection site were collected and fixed. These were subsequently processed and examined by light microscopy for histopathologic findings. Also at necropsy, the tumors were removed and divided in two. One piece was fixed in 10% neutral buffered formalin for 24 h at room temperature and embedded in paraffin; the other was snap frozen for RNA and protein analysis. Tumor growth inhibition (TGI) for all xenograft experiments was calculated following the formula:

[6] = mouse, in vivo
Experimental: Data collected were the same as in the Charles River xenograft study—clinical signs, body weight, tumor volume, blood samples from 3 mice/group for hematology and clinical chemistry (ALT, AST, BUN, creatinine, CK), and tissue samples collected and fixed from the same 3 mice. Liver, kidneys, and small intestine also were weighed.
(§3) The dose volume was 10 mL/kg.

[7] = Toxicology in DLBCL3 patient derived xenograft mice; type: in vivo, mouse; conditions: within the first 7 days
Experimental: as §3

BL2 xenografts = experiment: BL2 xenograft, tumor growth; type: in vivo, mouse; conditions: doxorubicin
Source text: BL2 xenograft study at Jackson Laboratory: One hundred five (105) 6 week old female NOD.CB17-Prkdc scid/J (NOD scid, Stock #001303) mice were transferred to the in vivo research laboratory in Sacramento, CA. The mice were ear notched for identification and housed in individually and positively ventilated polysulfone cages with HEPA filtered air at a density of 5 mice per cage. Initially cages were changed every two weeks. The animal room was lighted entirely with artificial fluorescent lighting, with a controlled 12 hour light/dark cycle (6 am to 6 pm light). The normal temperature and relative humidity ranges in the animal rooms were 20-26° C. and 30-70%, respectively. The animal rooms were set to have up to 15 air exchanges per hour. Filtered tap water, acidified to a pH of 2.5 to 3.0, and standard lab chow were provided ad libitum.
as §3
TGI (%)=(Vcontrol−Vtreated)/(Vcontrol−Vnitial)*100.

[8] = mouse, in vivo; remark: listed apart in the source
Experimental: as §4, §5

[9] = purified T cells from healthy donors, T cells viability (#1)
[10] = purified T cells from healthy donors, T cells viability (#2)
[11] = purified T cells from healthy donors, T cells viability (#3)

Compound: Cc1nn(C)c(C)c1N[S+](=O)([O-])c1c(Cl)cc(-c2ccnc(N3CCNCC3)c2)cc1Cl [PCLX-002]
- level of IL-5, IL-10 and IL-13 (T cells): significantly reduced
- level of IL-6, IL-8 and IFN-gamma (T cells): significantly reduced
- Clearance [1]: 5 mL/min/kg
- viability at 4 days, 20 nM ([2]; T cells viability (#1)): 9%
- viability at 4 days, 100 nM ([2]; T cells viability (#1)): 9%
- viability at 4 days, 500 nM ([2]; T cells viability (#1)): 9%
- viability at 4 days, 20 nM ([2]; T cells viability (#2)): 65%
- viability at 4 days, 100 nM ([2]; T cells viability (#2)): 65%
- viability at 4 days, 500 nM ([2]; T cells viability (#2)): 65%
- viability at 4 days, 20 nM ([2]; T cells viability (#3)): 75%
- viability at 4 days, 100 nM ([2]; T cells viability (#3)): 75%
- viability at 4 days, 500 nM ([2]; T cells viability (#3)): 69%

Compound: Cc1nc(Nc2ncc(C(=O)Nc3c(C)cccc3Cl)s2)cc(N2CCN(CCO)CC2)n1 [dasatinib]
- HGAL and Arf1 protein levels [3]: no effect

Compound: CC(C)C[C@@H](C=O)NC(=O)[C@H](CC(C)C)NC(=O)[C@H](CC(C)C)NC(=O)OCc1ccccc1 [MG132] (Cbz-Leu-Leu-Leu-aldehyde)
- levels of the 4 SFK proteins (Src, Lyn, Hck, Lck) [4]: partial or complete restoration

Compound: COc1cccc2c1C(=O)c1c(O)c3c(c(O)c1C2=O)C[C@@](O)(C(=O)CO)C[C@@H]3O[C@H]1C[C@H](N)[C@H](O)[C@H](C)O1 [doxorubicin, Doxorubicin hydrochloride, reference compound]
- TGI (DOHH2 tumors): 57%
- MPV [5]: 6.2 ± 0.15 fL
- Absolute Lymphocyte cells [6]: 2.28 ± 0.4
- Absolute Monocyte cells [6]: 0.7 ± 0.19
- Hemoglobin [6]: 13.6 ± 0.21 g/dL
- MCH [6]: 13.6 ± 0.12
- ROW % [6]: 17.03 ± 0.15%
- toxicity of doxorubicin treatment [7]: severe drug toxicity and death in the majority of tumor bearing mice
- effect on BL2 tumor growth (BL2 xenografts): no effect
- reduced body weight [8]: up to 8%

Compound: C=CC(=O)N1CCC[C@@H](n2nc(-c3ccc(Oc4ccccc4)cc3)c3c(N)ncnc32)C1 [ibrutinib]
- HGAL and Arf1 protein levels [3]: no effect

Compound: Cc1nn(C)c(C)c1CCOc1c(-c2ccc3c(c2)c(CN(C)C)nn3C)ccc(F)c1F [IMP-1088, reference compound]
- TNFa secretion (T cells): increasing the secretion
- level of IL-5, IL-10 and IL-13 (T cells): significantly reduced
- level of IL-6, IL-8 and IFN-gamma (T cells): significantly reduced
- viability at 4 days, 20 nM [2, 9]: 9%
- viability at 4 days, 100 nM [2, 9]: 10%
- viability at 4 days, 500 nM [2, 9]: 6%
- viability at 4 days, 20 nM [2, 10]: 61%
- viability at 4 days, 100 nM [2, 10]: 59%
- viability at 4 days, 500 nM [2, 10]: 59%
- viability at 4 days, 20 nM [2, 11]: 74%
- viability at 4 days, 100 nM [2, 11]: 70%
- viability at 4 days, 500 nM [2, 11]: 70%
